Here are results for 5 molecules from PMC12656565, “In Vitro and Ultrastructural Evaluation of the Cytotoxic and Antileishmanial Activities of Thiosemicarbazone Compounds Against Promastigotes and Axenic Amastigotes of Leishmania infantum” (Tropical Medicine and Infectious Disease, 2025).

The term IC50 denotes the concentration at which inhibition is half-maximal. As usually defined, the inhibition is the relative decrease from the control value, in per cent. Low values mean little suppression, high ones strong suppression.

Peptide text beside a SMILES is read from it. * marks the point of attachment. Cbz = O=C(OCc1ccccc1)*

The subject of series [1] is Leishmania infantum promastigote forms (MHOM/BR/BH46). Briefly: In vitro leishmanicidal activity against promastigotes (Neubauer chamber counting). It counts as cell-based. The conditions noted are these: for IC50 / inhibition at 20 µM: Leishmania infantum; for IC50: 72 h, L. infantum promastigotes, linear regression; for inhibition at 20 µM: lowest concentration tested in the promastigote series (20–400 µM). As for the experimental part:
For this study, the Leishmania infantum strain MHOM/BR/BH46 was used. It was maintained by cryopreservation in liquid nitrogen, using a preservation solution containing 10% dimethyl sulfoxide (DMSO) and 90% fetal bovine serum (FBS). For the experiments, the strain was reactivated and maintained in continuous culture in modified Schneider’s Drosophila medium, supplemented with 10% heat-inactivated fetal bovine serum (FBS), at a temperature of 26 °C, with subcultures performed every 72 h. The promastigote form was used for the in vitro assays, with growth observed and monitored through parasite counting using a Neubauer chamber (iNCYTO CChip DHC-N01, Cheonan-Si, Republic of Korea).
The in vitro leishmanicidal activity of compounds LT-70, LT-73, LT-75, LT-89, and amphotericin B was determined as described by Aliança et al., with adaptations. Promastigote forms of L. infantum (MHOM/BR/BH46) were maintained in Schneider’s medium supplemented with 10% fetal bovine serum (FBS), incubated at 26 °C. For experiments, parasites were subcultured and grown for 72 h until reaching stationary phase. Subsequently, they were adjusted to a concentration of 1 × 10^6 parasites/mL. Cultures were then incubated in the presence of the tested compounds (20–400 µM) and Amphotericin B was tested from 0.01 to 1.0 µM in preliminary range-finding assays, confirming an IC50 of 0.04 µM, both prepared in DMSO (final DMSO concentration < 1%), as well as a control containing only the diluent. Analyses were performed in technical triplicate and biological duplicate. Cultures were maintained at 26 °C for 72 h, with daily parasite counts performed using a Neubauer chamber. The median inhibitory concentration (IC50) was determined after 72 h by linear regression using SPSS 25.0 software for Mac. All assays were performed in 24-well flat-bottom plates (2 mL final volume per well), with parasite inoculum verified by Neubauer counting chamber. The compounds LT-73 and LT-75 were selected based on their best leishmanicidal performance and respective selectivity index (SI), calculated as the ratio between the cytotoxic concentration for 50% of host cells (CC50) and the IC50 obtained for parasites. […] IC50 and CC50 values were obtained by linear regression using […]. This method has been validated in our previous thiosemicarbazone publications. Each assay was conducted in triplicate across two independent biological experiments performed on separate days to ensure reproducibility and minimize batch effects. MTT was selected for consistency with the validated thiosemicarbazone protocol by Jacob et al., ensuring methodological coherence with prior data.

In another series the test system is J774.A1 macrophages. On the set-up: method as in PMID 33590474. The conditions noted are these: highest concentration tested 75 µM, previously determined in collaboration with Jacob et al., ref [20]; cited from earlier work.
The test system of series [2] is L. infantum promastigote cells. Briefly: Mitochondrial membrane potential (Rhodamine 123, flow cytometry). It counts as cell-based, Leishmania infantum. Here is the method: To evaluate the effects of compounds on the mitochondrial membrane potential (ΔΨm) of Leishmania infantum, the cationic probe Rhodamine 123 (Rod 123) was used through quantitative flow cytometry analysis. […] After incubation, cells were centrifuged at 3000× g for 5 min, and supernatants discarded. […] Hydrogen peroxide (H2O2) at 1 μM was used as positive control, previously described in the literature as an inducer of mitochondrial potential loss. Cells were analyzed by flow cytometry on the FACSCalibur equipment (Becton & Dickinson, San José, CA, USA), with excitation at 488 nm and detection at 505/534 nm. Fifty thousand events per sample were acquired. Data were expressed as percentage of cells stained with Rhodamine 123 for each tested condition. Fluorescence variation was quantified by Variation Index (VI), calculated by the equation: VI = (MT − MC)/MC, where MT corresponds to the median fluorescence of treated cells and MC to the median of control cells (untreated).
Background: A flow cytometer gives signals particle by particle.

Series [3] deals with axenic amastigote forms of Leishmania amazonensis. Details: method as in ref [22] Oliveira et al. The conditions noted are these: ref [22] Oliveira et al.; cited from earlier work.
The subject of the next series is Leishmania infantum. Details: method as in PMID 35861942, PMID 14982775. To be noted: against Leishmania infantum, similar in vitro conditions; ref [25],[29]; cited from earlier work.

As for `C=CCNC(=S)N/N=C\c1c[nH]c2c(C)cccc12` [LT-89], the “SI (CC50/IC50)” value in series [1] (CC50 J774 macrophages / IC50 promastigotes) turned out to be 4.3. In series [1], this molecule came in with an IC50 of under 20 µM and an inhibition at 20 µM of 100%. In the series with J774.A1 macrophages, the CC50 is 60 ± 4 µM.
As for `OO` [Hydrogen Peroxide (H2O2), Hydrogen peroxide, reference compound], in series [2] (positive control, H2O2 at 1 μM), the “Mean (Rho 123 fluorescence)” value was found to be 581 ± 35 and the “Variation (Variation Index, VI = (MT − MC)/MC)” value was −0.18 ± 0.08. Further, in series [2] (range over the tested concentrations (1× and 2× IC50; H2O2 control)), the “Variability Index (VI), range” value was −0.018 to −0.73.
As for `CC(C)[C@H](NC(=O)OCc1ccccc1)C(=O)N[C@H](C=O)Cc1ccccc1` [MDL28170] (Cbz-Val-Phe-aldehyde), in series [3], the IC50 is 13.5 µM.
`CCCCCCCCCCCCCCCCOP(=O)([O-])OCC[N+](C)(C)C` [miltefosine]: the IC50 with Leishmania infantum is 8 to 12 µM.
For `N#Cc1ccc2[nH]cc(/C=N/NC(=S)Nc3ccccc3)c2c1` [LT-70], in series [1], the IC50 is under 20 µM and at 20 µM the inhibition was 100%. In addition, the CC50 in the series on J774.A1 macrophages is 64 ± 5 µM.
